Laboratory results as given in patent publication US5416073A, “Growth hormone-releasing peptides and method of treating animals, therewith” (The Adminstrators of the Tulane Educational Fund, priority 1985, dated 1995).

Tests used:
Growth Hormone Release = assay: Peptide effects on growth hormone release, plasma GH by RIA in anesthetized male rats; format: in vivo, rat; details: for Plasma GH: 15 min; for % Potency: by comparison to pooled standards GRF(1-29)-NH2, limits in parenthesis
Procedure: In this evaluation, the procedures described by W. A. Murphy et al., Endocrinology 109:491-495 (1980), were employed.
In growth hormone (GH) experiments, male rats (Charles Rivers) were anesthetized with NEMBUTAL® (6 mg per 100 g body weight) which also served to maintain stimulated plasma GH levels. Exactly 30 minutes after the rats were anesthetized, 0.5 mL of saline or the test peptide in saline was administered as a SC bolus. A 1 mL blood sample was drawn from the jugular vein 15 minutes after the injection of the peptide in saline. GH levels were determined using NIADDKD rat GH RIA components.

dairy cows = assay: Effect on milk production in dairy cows, treatments administered subcutaneously; format: in vivo; details: for Milk Production: 10-day treatment period, mean, saline control 22.2; for % increase over control: milk production, vs saline control
Procedure: In this test, treatments are administered using a Latin Square design using four cows. Each treatment period is 10 days, and the interval between treatments is 4 days.
There is a pre-treatment period of one week, at the end of which each cow receives an indwelling jugular catheter. Catheters are flushed daily with heparinized (500-1000 IU/ml) sterile saline to help maintain potency and are replaced as needed.
The drugs are solubilized in sterile saline and injected subcutaneously each day with the dosage based on the cow's weight. Dosages range from 0.06 mg/kg animal/day to 60 mg/kg animal/day, preferably 0.10 mg/kg animal/day to 50 mg/kg/day.
On the first and last treatment days of each period, blood is collected at 15 minute intervals for 1 hour prior to and 11/2 hours after treatment; sampling continues at 30 minutes intervals for an additional 31/2 hours.
Milk samples are obtained on the evening proceeding each bleeding day, the morning of each bleeding day and combined (50% each).
Feed intake, refusals and milk production is monitored for all animals.
Results obtained are reported as mean milk production in kg/day for each treatment and compared against a saline control.

## CC[C@H](C)[C@H](NC(=O)[C@H](C)NC(=O)[C@H](CC(=O)O)NC(=O)[C@@H](C)NC(=O)[C@@H](N)Cc1ccc(O)cc1)C(=O)N[C@@H](Cc1ccccc1)C(=O)N[C@H](C(=O)N[C@@H](CC(N)=O)C(=O)N[C@@H](CO)C(=O)N[C@@H](Cc1ccc(O)cc1)C(=O)N[C@@H](CCCNC(=N)N)C(=O)N[C@@H](CCCCN)C(=O)N[C@H](C(=O)N[C@@H](CC(C)C)C(=O)NCC(=O)N[C@@H](CCC(N)=O)C(=O)N[C@@H](CC(C)C)C(=O)N[C@@H](CO)C(=O)N[C@@H](C)C(=O)N[C@@H](CCCNC(=N)N)C(=O)N[C@@H](CCCCN)C(=O)N[C@@H](CC(C)C)C(=O)N[C@@H](CC(C)C)C(=O)N[C@@H](CCC(N)=O)C(=O)N[C@@H](CC(=O)O)C(=O)N[C@H](C(=O)N[C@@H](CCSC)C(=O)N[C@@H](CO)C(=O)N[C@@H](CCCNC(=N)N)C(N)=O)[C@@H](C)CC)C(C)C)[C@@H](C)O [[D-Ala^2]-hpGRF(1-29)-NH2, D-alanine^2-human Pancreatic Growth Hormone-Releasing(1-29)-amide]
Growth Hormone Release; dose 0.08 μg/100 g BW SC, saline 454 ± 62
  Plasma GH: 1118 ± 158 ng/mL
Growth Hormone Release; dose 0.20 μg/100 g BW SC, saline 454 ± 62
  Plasma GH: 2122 ± 350 ng/mL
Growth Hormone Release; dose 0.50 μg/100 g BW SC, saline 454 ± 62
  Plasma GH: 3539 ± 109 ng/mL
Dairy cows; 0.4 mg/kg/day SC
  Milk Production: 23.9 kg/day
  % increase over control: +7.6%
Dairy cows; 0.8 mg/kg/day SC
  Milk Production: 23.8 kg/day
  % increase over control: +7.2%

## D-serine-9-human Pancreatic Growth Hormone-Releasing(1-29)-amine [D-Ser^9]
Growth Hormone Release
  % Potency: 108 (77-151) %
Growth Hormone Release; dose 16 (unit not given), SC
  Plasma GH: 1804 ± 312
Growth Hormone Release; dose 40 (unit not given), SC
  Plasma GH: 3652 ± 370

## N-acetyl-L-histidine-1,D-alamine-2,L-norleucine-27-human Pancreatic Growth Hormone-Releasing (1-29)-amine [N-AcHis^1, D-Ala^2, Nle^27]
Growth Hormone Release
  % Potency: 1574 (1112-2226) %
Growth Hormone Release; dose 0.5 (unit not given), SC
  Plasma GH: 1146 ± 143
Growth Hormone Release; dose 1.25 (unit not given), SC
  Plasma GH: 1907 ± 603

## N-acetyl-L-histidine-1,D-alanine^2 -human Pancreatic Growth Hormone-Releasing(1-29)-amine [[N-Ac-His^1, D-Ala^2]-hpGRF(1-29)-NH2]
Growth Hormone Release; dose 1.0 μg/100 g BW SC, saline 541 ± 78
  Plasma GH: 1974 ± 274 ng/mL
Growth Hormone Release; dose 5.0 μg/100 g BW SC, saline 541 ± 78
  Plasma GH: 4989 ± 638 ng/mL
